What was measured:
[1] = tested on: rat; details: Prenatal developmental toxicity study, sprague dawley, Oral, Gavage/Intubation, dose end: 19 GD
[2] = tested on: rat; details: Subchronic oral toxicity in rodents, fischer, Gavage/Intubation, dose end: 13 week, group: systemic
[3] = tested on: rat; details: Combined chronic toxicity/carcinogenicity; fischer; Oral; Gavage/Intubation; dose end: 2 year; group: systemic; systemic / in life observation / body weight / body weight + systemic / in life observation / clinical signs / [other] + systemic / in life …
[4] = tested on: mouse; details: Combined chronic toxicity/carcinogenicity, b6c3f1, Oral, Gavage/Intubation, dose end: 2 year, group: systemic
[5] = tested on: mouse; details: Subchronic oral toxicity in rodents, b6c3f1, Gavage/Intubation, dose end: 13 week, group: systemic
[6] = tested on: rat; details: Combined chronic toxicity/carcinogenicity; sprague dawley; Oral; Gavage/Intubation; dose end: 24 month; group: systemic; systemic / hematology / erythrocyte (rbc) count differential / erythrocyte (rbc) + systemic / hematology / hemoglobin (hgb) / hemoglobin (…
[7] = tested on: mouse; details: Carcinogenicity; cd1; Oral; Feed; dose end: 18 month; group: systemic; systemic / in life observation / body weight / body weight + systemic / in life observation / body weight / body weight gain
[8] = tested on: rat; details: Subchronic oral toxicity in rodents, sprague dawley, Feed, dose end: 90 day, group: systemic
[9] = tested on: rat; details: Combined chronic toxicity/carcinogenicity, sprague dawley, Oral, Feed, dose end: 104 week, group: systemic
[10] = tested on: dog; details: Chronic toxicity; beagle; Oral; Gavage/Intubation; dose end: 52 week; group: systemic; systemic / clinical chemistry / cholesterol / cholesterol + systemic / clinical chemistry / triglycerides / triglycerides + systemic / in …
[11] = tested on: rabbit; details: Prenatal developmental toxicity study, new zealand white, Dermal, Topical, dose end: 18 GD, group: maternal
[12] = tested on: rat; details: Subchronic oral toxicity in rodents, fischer, Water, dose end: 13 week, group: systemic
[13] = tested on: rat; details: Prenatal developmental toxicity study; wistar; Oral; Feed; dose end: 20 GD; group: maternal; systemic / in life observation / body weight / body weight gain
[14] = tested on: rat; details: Fertility (Segment I); sprague dawley; Oral; Gavage/Intubation; dose end: 13 PND; group: offspring; systemic / in life observation / body weight / offspring (pup) weight
[15] = group: developmental, systemic / in life observation / body weight / fetal weight
[16] = group: maternal, systemic / in life observation / body weight / body weight + systemic / in life observation / body weight / body weight gain + systemic / in…
[17] = systemic / organ weight / liver / relative to body weight
[18] = systemic / hematology / methemoglobin / methemoglobin + systemic / hematology / reticulocyte / reticulocyte + systemic / pathology …
[19] = systemic / pathology microscopic / bone marrow / hypercellularity
[20] = systemic / hematology / reticulocyte / reticulocyte + systemic / organ weight / spleen / absolute + systemic / organ weight / spleen / …
[21] = systemic / organ weight / liver / absolute + systemic / organ weight / liver / relative to body weight + systemic / organ weight / heart / …
[22] = systemic / organ weight / liver / relative to body weight + systemic / clinical chemistry / cholesterol / cholesterol + systemic / organ …
[23] = systemic / organ weight / testes / relative to body weight
[24] = systemic / in life observation / clinical signs / desquamation + systemic / in life observation / clinical signs / erythema + systemic / …
[25] = systemic / clinical chemistry / aspartate aminotransferase (ast/sgot) / aspartate aminotransferase (ast/sgot) + systemic / clinical …

SMILES: [N-]=[N+]=[N-].[Na+] [Sodium azide]
- LEL [1, 15]: 17.5 mg/kg/day
- LOAEL [1, 15]: > 17.5 mg/kg/day
- NEL [1, 15]: 5 mg/kg/day
- NOAEL [1, 15]: ≥ 17.5 mg/kg/day
- LEL [1, 16]: 17.5 mg/kg/day
- LOAEL [1, 16]: > 17.5 mg/kg/day
- NEL [1, 16]: 5 mg/kg/day
- NOAEL [1, 16]: ≥ 17.5 mg/kg/day
- LOAEL ([2]; systemic / in life observation / body weight / body weight gain + systemic / in life observation / clinical signs / hunched posture): 10 mg/kg/day
- NOAEL ([2]; systemic / in life observation / body weight / body weight gain + systemic / in life observation / clinical signs / hunched posture + …): 5 mg/kg/day
- LEL [2, 17]: 1.25 mg/kg/day
- NEL [2, 17]: < 1.25 mg/kg/day
- LEL [3]: 10 mg/kg/day
- LOAEL [3]: 10 mg/kg/day
- NEL [3]: 5 mg/kg/day
- NOAEL [3]: 5 mg/kg/day

SMILES: Nc1ccc([N+](=O)[O-])cc1 [4-Nitroaniline]
- LOAEL [4, 18]: 30 mg/kg/day
- NOAEL [4, 18]: 3 mg/kg/day
- LEL [4, 19]: 3 mg/kg/day
- NEL [4, 19]: < 3 mg/kg/day
- LOAEL [5, 20]: 30 mg/kg/day
- NEL [5, 20]: 3 mg/kg/day
- NOAEL [5, 20]: 10 mg/kg/day
- LEL ([5]; systemic / pathology microscopic / spleen / hematopoietic cell proliferation + systemic / organ weight / liver / relative to body weight + …): 10 mg/kg/day
- LEL [6]: 1.5 mg/kg/day
- LOAEL [6]: > 9 mg/kg/day
- NEL [6]: 0.25 mg/kg/day
- NOAEL [6]: ≥ 9 mg/kg/day

SMILES: O=C(NC(=O)c1c(F)cccc1F)Nc1ccc(CON=C(c2ccc(Cl)cc2)C2CC2)cc1 [Flucycloxuron]
- LEL [7]: 73 mg/kg/day
- LOAEL [7]: 73 mg/kg/day
- NEL [7]: 5.3 mg/kg/day
- NOAEL [7]: 5.3 mg/kg/day
- LEL [8, 21]: 200 mg/kg/day
- NEL [8, 21]: < 200 mg/kg/day
- NOAEL ([8]; systemic / pathology microscopic / liver / necrosis + systemic / pathology microscopic / spleen / pigmentation + systemic / clinical …): 200 mg/kg/day
- LOAEL ([8]; systemic / pathology microscopic / liver / necrosis + systemic / pathology microscopic / spleen / pigmentation + systemic / organ weight / …): 2000 mg/kg/day
- LOAEL [9, 22]: > 7000 mg/kg/day
- NOAEL [9, 22]: ≥ 7000 mg/kg/day
- LEL [9, 23]: 120 mg/kg/day
- NEL [9, 23]: < 120 mg/kg/day
- LEL [10]: 10 mg/kg/day
- LOAEL [10]: 10 mg/kg/day
- NEL [10]: < 10 mg/kg/day
- NOAEL [10]: < 10 mg/kg/day

SMILES: CCCCOCCOCCO [2-(2-Butoxyethoxy)ethanol]
- LEL ([11]; systemic / in life observation / clinical signs / desquamation + systemic / in life observation / clinical signs / erythema): 300 mg/kg/day
- LOAEL [11, 24]: > 1000 mg/kg/day
- NEL [11, 24]: 100 mg/kg/day
- NOAEL [11, 24]: ≥ 1000 mg/kg/day
- LOAEL [12, 25]: > 1000 mg/kg/day
- NEL [12, 25]: 50 mg/kg/day
- NOAEL [12, 25]: ≥ 1000 mg/kg/day
- LEL ([12]; systemic / hematology / erythrocyte (rbc) count differential / erythrocyte (rbc) + systemic / hematology / hematocrit (hct) / hematocrit (…): 250 mg/kg/day
- LEL [13]: 25 mg/kg/day
- LOAEL [13]: > 633 mg/kg/day
- NEL [13]: < 25 mg/kg/day
- NOAEL [13]: ≥ 633 mg/kg/day
- LEL [14]: 1000 mg/kg/day
- LOAEL [14]: > 1000 mg/kg/day
- NEL [14]: 500 mg/kg/day
- NOAEL [14]: ≥ 1000 mg/kg/day

Source: EPA's ToxRefDB 2
